Experimental data published in patent US12534497B2, “TEIPP peptide variant and use as a medicament” (Academisch Ziekenhuis Leiden (h.o.d.n. LUMC), priority 2019, dated 2026).
No end group written: not given here.

Tests used:
[1] = system: LRPAP1-specific T cell clone
[2] = system: monocyte-derived dendritic cells; test: Cross-presentation of long peptides by monocyte-derived dendritic cells, read out by LRPAP1-specific CD8 T cell clone cytokine release; format: cell-based, human; settings: positive control on moDC
Protocol: (A) Monocyte-derived dendritic cells were incubated with indicated long peptides comprising the LRPAP1 epitope and co-cultured with a TEIPP-specific CD8 T cell clone 1A8. Non-natural flanking amino acids at the amino-terminus, or natural flanking amino acids at the carboxy-terminus or natural flanking amino acids at both ends were used to elongate the minimal epitope. GM-CSF secretion by the TEIPP-specific T cell clone was used to determine cross-presentation efficiency and pulsing with short peptide ([…]) was used as positive control. (B) Predicted HLA-A2*01 binding affinity scores of LRPAP1 peptides with substituted amino acids at the C-terminal p9 (MHCnet 4.0 algorithm). Binding affinity score was calculated on basis of the IC50 values and ranking percentage (see Table 2 for exact values). (C) Predicted proteasome cleavage activity for four different LRPAP1 peptides using NetCHop 3.1 algorithm. […] (D) Functional T cell avidity was measured as GM-CSF secretion by TEIPP-specific T cell clone stimulated with short peptide—pulsed EBV-JY cells in serial dilutions of the peptides. […] (E) EC50 values were calculated from values obtained in D (wherein EC values represent the dose of peptide resulting in half of the maximal response to that particular peptide variant). […] Cross-presentation of the indicated long peptides was determined by T cell clone. […]

HLA-A*0201 = HLA-A*0201 (Homo sapiens, UniProt P04439, D140Y/D185E/D98H/E176V/E277Q/G131W/G231S/I119V/I121R/I166T/I218V/L300P/L318F/N151K/N90K/P208A/P217A/Q86G/Q94H/R138H/R169H/T345S); settings: previous studies; cited from earlier work
TAP KO melanoma cells = test: Recognition of TAP-deficient versus wild-type melanoma cells by peptide-induced T cell cultures; format: cell-based, human
Text: (A) Schematic overview of the tetramer pull-down approach and subsequent stimulation with short peptides. (B) Specificity of polyclonal […] peptide isolated T cells (upper panel) or […] peptide isolated T cells (bottom panel) as measured by staining of the T cells with two fluorescently labeled tetramers comprising the short natural sequence (horizontal axis) or the V-substituted peptide (vertical axis) by flow cytometry. (C) Geomeans for double tetramer positive cells on […] or […] peptide isolated T cells. (D) IFNy and GM-CSF production of polyclonal T cell bulks when stimulated with peptide pulsed EBV-JY cells as measured by ELISA. Means and SD are plotted of one out of three independent experiments. (E) Reactivity of these polyclonal T cell bulks when stimulated with wild-type and TAP knock out 518A2 melanoma cells (rendered TAP-deficient by CRISPR/CAS9 technology) or no tumor cells (control) as measured by indicated cytokine production using ELISA.
18-mer (also referred to as 18-meer) is SEQ ID NO: 4; 21-mer (also referred to as 21-meer) SEQ ID NO: 5; 24-mer (also referred to as 24-meer) is SEQ ID NO:6; and 27-mer (also referred to as 27-meer) is SEQ ID NO: 7. […]
To test the functionality of these T cell bulks, cytokine responses were measured towards both short peptides pulsed on immortalized HLA-A*0201 positive B cells (FIG. 2d). […]

[3] = system: TCR-transduced CD8 T cells; test: Reactivity of TCR-transduced T cells to peptide pulsed EBV-JY cells (cytokine ELISA); format: cell-based, human; settings: V-variant compared with S-variant peptide
Text: (B) TCRαβ gene transduction into T cells from a healthy donor. The introduced genes contain the murine TCR-αβ domain which enhances correct pairing of transgenic alpha and beta chains. Expression of this domain is confirmed in TCR-transduced T cells (on the horizontal axis). (C) Staining of TCRαβ transduced CD8 T cells with fluorescently labeled tetramers comprising the short natural peptide sequence (left panel) or the V-substituted peptide (right panel). (D) Functional reactivity of tetramer-enriched TCR-transduced T cells to peptide pulsed EBV-JY cells as measured by indicated cytokine production using ELISA. Means and SD are depicted from one out of three experiments with similar outcome. […] TCR-transduced T cells were stimulated with either the wild type version of two different melanoma cell lines, or their TAP knock out (TAP KO) variants generated by CRISPR/CAS9 technology. […] T cells only served as control.
Platinum-Amphotropic retrovirus production (Plat-A) retroviral packing cells (Cell Biolabs) were used for retrovirus production. Plat-A cells were seeded in 6-well plates and incubated overnight until fully attached. Next, the cells were transfected with 2 μg pMP71_1A8 TCR vector using lipofectamine 2000. Retrovirus supernatant was collected on 24 h and 48 h after transfection, spun down to remove cells, and stored in −80° C. […]

LRPAP1-specific T cells = test: In vitro vaccination: SLP-loaded moDC co-cultured with tetramer-enriched autologous T cells, tetramer analysis; format: cell-based, human; settings: 2 healthy blood donors stimulated 2-3 times with length variants
Protocol: In short, CD14 monocytes isolated from PBMC of healthy donors were differentiated into dendritic cells by culturing with GM-CSF and IL-4 for 6 days. On day 7, moDCs were plated in 96-well and incubated with 20 uM of V-SLP for 20 h. During the last 18 hours the DCs were matured with […] LPS. On day 8, the moDCs were washed and co-cultured with PBMC enriched for LRPAP1-specific T cells by […]-tetramers. (A) Schematic overview of the in vitro vaccination protocol using two V-variant peptides (C-terminal and N-terminal extended) as synthetic long peptides that require cross-presentation by monocyte-derived dendritic cells for priming of CD8 T cells. […] Control co-cultures were incubated without a peptide. (C) LRPAP1-specific T cell clones were generated via single cell FACS sort and their specificity to the wild type (S-variant) and the V-variant peptide was assessed using two fluorescently labeled tetramers comprising the short wild type sequence (horizontal axis) or the V-substituted peptide (vertical axis) by flow cytometry. Clone 1A8 was generated and described in a previous study^7, and used here as a reference clone. (D) LRPAP1-specific T cells clones were examined for recognition of TAP-deficient melanoma cell lines and their wild-type counterparts. Clones 2H11, 2B9 and 1A10 are shown. Means and SD are shown from one out of two experiments with similar outcome. Clone 1A8, shown in (E), served as positive control. (E) LRPAP1-specific T cells clones were examined for recognition of TAP-deficient melanoma cell lines and their wild-type counterparts. Clones 4B11, 1C5, and 1A8 are shown. Means and SD are shown from one out of two experiments with similar outcome. Clone 1A8, served as positive control. […]
HLA-A*02:01 positive PBMCs were isolated from buffy-coats from consented donors (Sanquin bloodbank, Amsterdam), using a gradient ficoll layer. […] T cell specificity and reactivity were analyzed by flow cytometry.
Tetramer staining on CD8 T cells was performed by 15 min incubation at 4° C. and washed three times with cold PBS/BSA prior to cell surface staining. […] T cell activation was measured by intracellular IFNγ staining (XMF1.2, Biolegend) using an ICS kit (BioLegend) according to manufactures protocol. moDCs were stained with anti-CD1a (clone HI149, BD), anti-CD14 (clone M5E2, BD), anti-CD80 (clone L307.4, BD), anti-CD83 (clone HB15e, BD), anti-CD86 (clone IT2.2, biolegend), and anti HLA-DR (clone G46-6, BD) antibodies for 30 min at 4° C. and washed three times with cold PBS/BSA. Samples were acquired using a BD LSRFortessa™ flow cytometry system and analyzed using FlowJo software (Tree Star). […]

Sequence | EC50 [1] | expansion of HLA-A*02:01 FLGPWPAAS-specific CD8+ T cells (LRPAP1-specific T cells) | also measured
RRVRSFLRGLPALLLLLLFLGPWPAAV [27-mer] | – | able to stimulate the expansion | –
RSFLRGLPALLLLLLFLGPWPAAV [24-mer] | – | able to stimulate the expansion | recognition of TAP KO versus TAP proficient melanoma cell lines by long peptide stimulated T cell cultures (TAP KO melanoma cells; co-cultures with TAP proficient and TAP KO melanoma cell lines): preferentially recognize the TAP KO melanoma cells
LRGLPALLLLLLFLGPWPAAV [21-mer] | – | able to stimulate the expansion | –
LPALLLLLLFLGPWPAAV [18-mer] | – | able to stimulate the expansion | –

Further lines, with some results ahead:

EC50 [1] | Sequence | expansion of HLA-A*02:01 FLGPWPAAS-specific CD8+ T cells (LRPAP1-specific T cells) | also measured
1.9 µg/mL | FLGPWPAAS | – | T cell stimulation by exogenous pulsing of short peptide [2]: did stimulate the T cells; binding affinity onto HLA-A*0201 (HLA-A*0201): moderate
0.1 µg/mL | FLGPWPAAV | – | fold better T cell activation ([1]; V versus S at the C-terminus): 19 fold; cytokine response compared to the S-peptide ([1]; short peptide variants exogenously pulsed, titrated concentrations): more potent; recognition of TAP-negative versus wild type melanoma by peptide induced polyclonal T cell cultures (TAP KO melanoma cells; 518A2 melanoma cell line): preferred recognition of the TAP-negative tumor line; cytokine responses of TCR-transduced T cells [3]: stronger cytokine responses
0.7 µg/mL | FLGPWPAAI | – | –
3.7 µg/mL | FLGPWPAAL [FLGPWPAAL] | – | –
